Biological target: T1, estrogen receptor (ER) (Homo sapiens, UniProt P03372)
T1 construct: expressed in transfected cells; host or cells: CHO cells (cytosol)
T1 sequence (P03372 1-595): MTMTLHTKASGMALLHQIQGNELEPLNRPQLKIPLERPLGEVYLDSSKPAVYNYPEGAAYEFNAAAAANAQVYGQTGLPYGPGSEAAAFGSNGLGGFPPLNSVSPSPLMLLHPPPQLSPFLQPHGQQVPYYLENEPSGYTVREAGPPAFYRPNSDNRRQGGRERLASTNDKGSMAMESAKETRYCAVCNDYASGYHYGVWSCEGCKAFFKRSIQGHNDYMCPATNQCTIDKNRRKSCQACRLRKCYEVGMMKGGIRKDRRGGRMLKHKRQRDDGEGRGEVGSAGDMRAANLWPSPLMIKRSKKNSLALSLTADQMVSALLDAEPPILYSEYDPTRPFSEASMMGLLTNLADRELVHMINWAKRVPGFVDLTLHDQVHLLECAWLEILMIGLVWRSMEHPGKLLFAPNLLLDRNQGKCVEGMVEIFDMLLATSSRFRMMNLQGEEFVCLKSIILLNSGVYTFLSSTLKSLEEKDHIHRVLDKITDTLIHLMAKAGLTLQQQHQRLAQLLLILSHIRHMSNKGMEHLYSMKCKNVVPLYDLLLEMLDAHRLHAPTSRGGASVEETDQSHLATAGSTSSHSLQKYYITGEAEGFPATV
Assay: Receptor Binding Assay: competition with [3H]17β-estradiol, cytosol of CHO cells overexpressing the estrogen receptor
Conditions: 0.8 nM [3H]17β-estradiol, 12 competitor concentrations, room temperature 2.5 h, CHO cell cytosol

IC50: 350 nM
SMILES: CC1(C)c2cc(O)ccc2N(Cc2ccc(OCCN3CCCCCC3)cc2)C1c1ccc(O)cc1 (stereo not shown) [Example No. 11, 1-[4-(2-Azepan-1-yl-ethoxy)-benzyl]-2-(4-hydroxy-phenyl)-3,3-dimethyl-2,3-dihydro-1H-indol-5-ol]
